Experiments:
MDCK cells = type: cell-based, canine; conditions: peptide at 500 μM
From the text: Cell culture: MDCK cells were a generous gift of Dr. Lawrence Sullivan (Kansas University Medical Center, Kansas City, Kans.). T84 cells were obtained from Dr. Daniel Devor (University of Pittsburgh, Pittsburgh, Pa.). MDCK and T84 cells were maintained with similar culture procedures. The culture medium was a 1:1 mixture of DMEM and Ham's F-12 (Gibco BRL, Grand Island, N.Y.) supplemented with 5% heat inactivated fetal bovine serum (BioWhittaker, Walkersville, Md.), and 1% penicillin and streptomycin (Gibco BRL). Cells were grown in plastic culture flasks in a humidified environment with 5% CO2 at 37° C. and passaged every 5-7 days. For Ussing chamber experiments, cells were plated on 1.13 cm^2 permeable supports (Snapwell™, Costar®, Cambridge, Mass.) at a density of approximately 1×10^6 cells/well and incubated in DMEM/F-12 supplemented with FBS and antibiotics (changed every other day) for 2-3 weeks prior to being mounted in modified Ussing flux chambers.
To form monolayers, the cells were plated onto the upper surface of a permeable membrane that forms the bottom of a plastic well. Two types were used. One was the Transwell™ insert (Costar®, Cambridge, Mass.) supported in a six-well tissue culture plate and the other type was the Snapwell™ (Costar®, Cambridge, Mass.). During incubation, the medium was replaced at 48-72 hour intervals. Confluent monolayers formed within 72 hours. Experiments were performed on the monolayers 6-9 days after the initial plating. Net fluid secretion responses were optimal after six days.
Solutions: Ringer solution was made fresh daily. The final concentration (in mM) was 120 NaCl, 25 NaHCO3 3.3 KH2HPO4, 0.8 K2HPO4, 1.2 MgCl2, 1.2 CaCl2, (290±2 mOsmol). All components of the Ringer solution were from Sigma (St. Louis, Mo.).
(§1) Epithelial electrical measurements: Transepithelial ion transport was evaluated in a modified Ussing chamber (Model DCV9, Navicyte, San Diego, Calif.). The Ussing chamber's fluid resistance compensation was completed in Ringer solution (see below). For electrical measurements cell monolayers were bathed in Ringer solution maintained at 37° C. and continuously bubbled with 5% CO2:95% O2. The transepithelial membrane potential (Vte) was clamped to zero and the transepithelial short circuit current (Isc), an indicator of net ion transport, was measured continuously with a voltage clamp apparatus (Model 558C, University of Iowa, Department of Bioengineering, Iowa City, Iowa). Data were digitally acquired at 1 Hz with a Macintosh computer (Apple Computer, Cuppertino, Calif.) using Aqknowledge software (ver. 3.2.6, BIOPAC Systems, Santa Barbara, Calif.) with an MP100A-CE interface.
as §1, with “Transepithelial” for “Epithelial electrical measurements: Transepithelial”, “(composition (in mM) was 120 NaCl, 25 NaHCO3 3.3 KH2HPO4, 0.8 K2HPO4, 1.2 MgCl2, 1.2 CaCl2).” for “(see below).”
MDCK cell monolayers (in the presence of 1-EBIO to maximize basolateral membrane K^+ conductance) were exposed on the apical aspect to escelating peptide concentrations. Maximal change in Isc (relative to the Isc prior to peptide exposure) was recorded following each increment in apical peptide concentration. […]

[1] = Chemical cross-linking (BS3) and SDS-PAGE, oligomeric state of peptide in solution; type: physicochemical; conditions: SDS-PAGE
Method: Chemical cross-linking: In order to visualize the oligomeric state of the peptide in solution a chemical cross-linking protocol was developed. Calculated amounts of each peptide were weighted out and dissolved in 1 mL of distilled water to make 1 mM stock solutions. A 100 mM stock solution of the chemical crosslinking reagent Bis[Sulfosuccinimidyl]suberate, BS^3, (Pierce Chemical Co., Rockford, Ill.) was prepared in dimethyl sulfoxide (DMSO). […] Sample were allowed to sit at room temperature for 15 minutes. 1-6 μL of 100 mM BS^3 was then added to the previously prepared peptide such that the crosslinking reagent was present in 20-fold excess. The final volume for each reaction was 100 μL. […] Each sample was then vacuum dried. Later dry samples were re-dissolved in 60 μL of distilled water along with 60 μL of a 2×-tricine SDS sample buffer (Novex, San Diego). All samples were then boiled at 100° C. for 5 minutes. 5 μL aliquots of each SDS boiled sample was then loaded into separate lanes of pre-cast, 1.0 mm, 10 well, 10-20% tricine gels (Novex, San Diego). Pre-made Novex tricine-SDS buffer was used in the electrophoresis. The reference well contained 1 μL of MultiMark® multi-colored molecular weight standard (Novex, San Diego). The electrophoresis was carried out at a constant 110 Volts for 90 minutes. […]

cultured CF monolayers = experiment: Glutathione transport in cultured CF monolayers; type: cell-based
MDCK monolayers = experiment: FITC-dextran permeability assay; type: cell-based, canine; conditions: SEQ ID NO. 27 100 μM; EDTA 3 mM in hypotonic Ringer
Method: Confluent MDCK cell monolayers were washed once with Ringer solution and placed in one of three treatments containing FITC-conjugated dextran (Sigma Chemical Co.) in the apical compartment; 1, Ringer solution in the apical and basolateral compartments; 2, Ringer solution apical and basolateral with SEQ ID No. 27 (also referred to herein as NC-1059) (100 μM) in the apical solution; 3, EDTA (3 mM) in Ringer solution that had been diluted 1:1 with distilled water in both the apical and basolateral compartments. Monolayers are incubated at 37° C. for 60 minutes and the solution in the basolateral well sampled to quantify fluorescently labeled dextran. Monolayers are then washed with Ringer solution to remove peptide, EDTA, and dextran, placed in tissue culture medium and returned to the incubator for two days before the assay was conducted again.
FITC-dextran permeability assay. Epithelial permeability to uncharged solutes of various sizes was assessed with monolayers grown on Snapwell tissue culture inserts as described above. […] Monolayers were incubated at 37° C. for 60 minutes and the solution in the basolateral well was sampled to quantify fluorescently labeled dextran. […]

[2] = test system: tight junction-associated proteins (actin, ZO-1, occludin) in MDCK monolayers; experiment: Confocal microscopy, immunolocalization of tight-junction associated proteins; type: cell-based, canine; conditions: peptides 100 μM; EDTA 6 mM and hypotonic Ringer
Method: Confocal microscopy. Immunoreactivity to antibodies raised against tight-junction associated proteins was assessed by confocal microscopy (Zeiss, Thornwood, N.Y.). Samples for visualization were prepared from monolayers used in electrophysiological studies. After removal from Ussing chambers, monolayers were washed in Ringer solution and fixed overnight in 10% neutral buffered formalin. Monolayers were washed 3 times in PBS, permeabilized with 0.1% Triton X-100 in PBS, blocked with goat serum, and then exposed to primary antibody in a 1:500 dilution (rat anti-ZO-1, cat# MAB120, Chemicon, Temecula, Calif. or rabbit anti-occludin, cat.# 71-1500; Zymed, San Francisco, Calif.) for 1 hour at room temperature. After being washed 3 times in PBS, FITC-conjugated goat anti-rat (cat #AP136F, Chemicon) or goat anti-rabbit (cat #FI-1000; Vector Laboratories, Burlingame, Calif.) secondary antibodies were employed (1:1000 dilution) with exposure occurring for 1 hour at room temperature. TRITC-labeled phalloidin (0.1 mg/ml in methanol; Sigma Chemical Co.) was used for F-actin localization was applied concurrently with the secondary antibody. A KrAr laser was used to excite the fluorophores. Filter sets used for fluorescein were BP485/20 nm for excitation and BP515-540 nm for emission and for rhodamine BP530-585 nm for excitation and LP590 nm for emission.

| Molecule | Activity profile in MDCK cells (MDCK cells) [at 500 μM μA/cm2] | aggregation state in solution [1] | glutathione transport (cultured CF monolayers) | permeation of 20 kDa FITC-dextran conjugate (MDCK monolayers) | distribution of actin, occludin and ZO-1 immunoreactivity [2] |
| --- | --- | --- | --- | --- | --- |
| PARVGLGITTVLTMTTQSSGSRAKKKK (PARVGLGITTVLTMTTQSSGSRAKKKK; Modified Homo sapiens) [SEQ ID No. 2, reference compound] | 12.5 | only trace amounts of aggregates higher than trimer | active but to a much lesser extent |  |  |
| O=C(O)CN(CCN(CC(=O)O)CC(=O)O)CC(=O)O [EDTA] |  |  |  | highest level of permeation | profound changes in localization of the peri-junctional actin ring, as well as the distribution of ZO-1 |

Source: patent US8163870B2, “Channel forming peptides” (Kansas State University Research Foundation, priority 2000, dated 2012)
